Data taken from patent publication US20250064941A1, “SIGLEC LIGANDS, CONJUGATES, AND METHODS OF USE THEREOF” (Osprey Biopharmaceuticals, Inc., priority 2023, published 2025).

Key:
[1] = molecular target: T1, mouse Siglec-2-Fc-Avi (CD22) (Mus musculus, UniProt P35329); test: SPR binding affinity to mouse CD22; settings: steady-state analysis
T1 construct: made in house
T1 sequence (P35329 22-708 limits assumed): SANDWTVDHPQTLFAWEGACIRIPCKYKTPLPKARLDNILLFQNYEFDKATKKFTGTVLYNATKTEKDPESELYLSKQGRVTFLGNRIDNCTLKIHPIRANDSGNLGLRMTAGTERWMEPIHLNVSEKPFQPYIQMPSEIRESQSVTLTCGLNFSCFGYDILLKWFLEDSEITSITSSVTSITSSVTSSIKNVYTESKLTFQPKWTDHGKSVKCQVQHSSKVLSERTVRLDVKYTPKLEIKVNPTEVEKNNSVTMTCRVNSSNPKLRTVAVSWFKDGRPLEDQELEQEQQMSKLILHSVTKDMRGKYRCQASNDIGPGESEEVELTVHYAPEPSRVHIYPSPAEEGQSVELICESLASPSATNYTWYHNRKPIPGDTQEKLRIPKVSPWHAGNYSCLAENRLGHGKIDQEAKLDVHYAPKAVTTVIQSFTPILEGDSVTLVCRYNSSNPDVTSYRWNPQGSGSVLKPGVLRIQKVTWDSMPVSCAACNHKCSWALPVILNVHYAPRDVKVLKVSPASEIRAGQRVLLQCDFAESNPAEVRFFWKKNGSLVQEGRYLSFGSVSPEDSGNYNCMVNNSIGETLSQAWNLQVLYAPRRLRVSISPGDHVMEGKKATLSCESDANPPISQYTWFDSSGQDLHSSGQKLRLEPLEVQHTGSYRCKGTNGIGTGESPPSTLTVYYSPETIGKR
Summary of the method: (§1)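 Biotinylated CD22 desialylated with SialoExo (4 h, 37° C) before capture on streptavidin chip. Running buffer 10 mM HEPES, 150 mM NaCl, 0.05% Tween-20, pH 7.5, 1% DMSO, with DMSO solvent correction; 120 s dissociation. Compound affinities from steady-state analysis.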

[2] = molecular target: cynomolgus Siglec-2/CD22 (Macaca fascicularis, UniProt A0A2K5WCZ6); test: biochemical; format: binding; settings: SPR, steady-state analysis; read-out: Affinity cyno CD22
cynomolgus Siglec-2/CD22, sequence (A0A2K5WCZ6 entry or part of it): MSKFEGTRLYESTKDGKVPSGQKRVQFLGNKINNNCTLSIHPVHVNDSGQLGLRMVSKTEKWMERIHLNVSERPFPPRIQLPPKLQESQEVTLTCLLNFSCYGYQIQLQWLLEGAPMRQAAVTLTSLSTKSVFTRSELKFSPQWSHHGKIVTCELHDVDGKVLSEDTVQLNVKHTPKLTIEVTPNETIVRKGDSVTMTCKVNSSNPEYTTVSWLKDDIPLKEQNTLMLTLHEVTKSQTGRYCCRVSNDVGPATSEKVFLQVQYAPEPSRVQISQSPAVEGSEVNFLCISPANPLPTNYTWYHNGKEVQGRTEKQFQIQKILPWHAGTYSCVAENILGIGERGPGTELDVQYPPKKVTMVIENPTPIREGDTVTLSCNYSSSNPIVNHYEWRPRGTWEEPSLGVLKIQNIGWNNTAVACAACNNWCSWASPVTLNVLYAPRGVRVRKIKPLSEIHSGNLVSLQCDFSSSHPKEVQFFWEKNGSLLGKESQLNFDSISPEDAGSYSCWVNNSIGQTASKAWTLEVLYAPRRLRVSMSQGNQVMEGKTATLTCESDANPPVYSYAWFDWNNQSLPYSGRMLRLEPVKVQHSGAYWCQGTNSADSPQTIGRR
Summary of the method: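 Compound binding measured by steady-state SPR analysis, 120 s dissociation, in HEPES-NaCl-Tween buffer pH 7.5 containing 1% DMSO, DMSO solvent-corrected. Surface: cyno CD22, sialic acids first stripped by SialoExo for 4 h at 37° C., then amine-coupled onto CM5.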

[3] = molecular target: T2, human Siglec-2/CD22 protein (Homo sapiens, UniProt P20273); test: SPR binding affinity to human CD22; settings: steady-state analysis
T2 construct: purchased Acro Biosystems SI2-H82E3
T2 sequence (P20273 20-847): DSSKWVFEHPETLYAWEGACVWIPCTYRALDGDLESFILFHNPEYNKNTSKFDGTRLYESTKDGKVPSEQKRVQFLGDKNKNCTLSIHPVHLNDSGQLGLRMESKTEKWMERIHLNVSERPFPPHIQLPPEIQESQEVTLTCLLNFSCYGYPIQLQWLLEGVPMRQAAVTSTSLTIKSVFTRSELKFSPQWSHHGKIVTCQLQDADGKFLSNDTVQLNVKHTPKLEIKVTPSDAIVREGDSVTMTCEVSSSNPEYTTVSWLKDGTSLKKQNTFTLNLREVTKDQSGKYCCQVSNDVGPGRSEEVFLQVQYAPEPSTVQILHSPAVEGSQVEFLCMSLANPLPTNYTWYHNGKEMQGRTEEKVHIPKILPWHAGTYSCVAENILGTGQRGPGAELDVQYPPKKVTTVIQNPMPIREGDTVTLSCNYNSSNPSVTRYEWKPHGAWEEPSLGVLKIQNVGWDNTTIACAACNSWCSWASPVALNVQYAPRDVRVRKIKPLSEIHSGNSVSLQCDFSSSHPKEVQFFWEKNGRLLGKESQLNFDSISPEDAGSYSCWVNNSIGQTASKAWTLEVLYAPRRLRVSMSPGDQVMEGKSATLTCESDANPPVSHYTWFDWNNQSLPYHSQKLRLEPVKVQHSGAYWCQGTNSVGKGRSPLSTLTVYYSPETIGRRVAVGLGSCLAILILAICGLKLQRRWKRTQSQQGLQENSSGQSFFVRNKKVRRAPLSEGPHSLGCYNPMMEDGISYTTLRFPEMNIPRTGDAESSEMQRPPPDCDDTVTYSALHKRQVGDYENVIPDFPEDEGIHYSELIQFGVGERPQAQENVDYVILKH
Summary of the method: as §1

How did the Kd [1] turn out when `C#CCCCCCCO[C@]1(C(=O)O)C[C@H](O)[C@@H](NC(=O)CO)[C@H]([C@H](O)[C@H](O)CNC(=O)c2ccc(Cl)cc2)O1` [Cpd. 267, (2R,4S,5R,6R)-6-((1R,2R)-3-(4-chlorobenzamido)-1,2-dihydroxypropyl)-4-hydroxy-5-(2-hydroxyacetamido)-2-(oct-7-yn-1-yloxy) tetrahydro-2H-pyran-2-carboxylic acid] was run?
Its Kd is 1 to 10 µM.

And the Kd [2]?
Its Kd is less than 1000 nM.

And the Kd [3]?
The Kd was less than 1000 nM.
